This note sets out measurements from US9771369B2, “Compounds and methods for kinase modulation, and indications therefor” (Plexxikon Inc., priority 2014, dated 2017).

Molecules are shown by their SMILES.

In the assay the target is c-kit mutant D816V (Homo sapiens (Human), UniProt P10721, D816V/DEL694-753). Nature of the assay: c-Kit mutant D816V biochemical assay (AlphaScreen kinase activity). The gist of the method:
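Recombinant His-tagged c-Kit D816V kinase domain (residues 551-934, insert 694-753 deleted, E. coli-expressed) phosphorylating 30 nM biotin-(E4Y)10 with 10 μM ATP, HEPES pH 7.2, Mg/Mn, 5% DMSO; 30 min, room temperature. Phosphorylation detected by AlphaScreen (streptavidin donor/PY30 acceptor beads); IC50 from 8-point 1:3 series.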

c-kit mutant D816V, sequence (P10721 other isoform, or with tags, fused parts or gaps D816V/del 694-753): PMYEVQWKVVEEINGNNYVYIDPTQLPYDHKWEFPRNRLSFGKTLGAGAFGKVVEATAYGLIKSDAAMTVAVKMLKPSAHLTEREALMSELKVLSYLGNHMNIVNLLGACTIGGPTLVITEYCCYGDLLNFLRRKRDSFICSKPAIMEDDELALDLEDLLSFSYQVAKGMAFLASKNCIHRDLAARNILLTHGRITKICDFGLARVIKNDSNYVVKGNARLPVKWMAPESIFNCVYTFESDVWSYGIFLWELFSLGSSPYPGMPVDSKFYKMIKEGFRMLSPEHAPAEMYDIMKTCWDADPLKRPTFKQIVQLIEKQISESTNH

As a reminder, the IC50 is the concentration that gives 50% inhibition. Higher therefore signals a need for much substance. The molecule `COc1cccc(-c2[nH]c(C3(C)CCN(c4ncnc5[nH]c(-c6ccc(C(N)=O)cc6)cc45)CC3)nc2C)c1` [P-3225, 4-[4-[4-[5-(3-methoxyphenyl)-4-methyl-1H-imidazol-2-yl]-4-methyl-1-piperidyl]-7H-pyrrolo[2,3-d]pyrimidin-6-yl]benzamide] registered an IC50 of 0.0001 to 1 µM.
The molecule `CCOc1ccc(-c2[nH]c(C3(C)CCN(c4ncnc5[nH]c(-c6ccc(C(=O)NC)nc6)cc45)CC3)nc2C)cc1` [P-3226, 5-[4-[4-[5-(4-ethoxyphenyl)-4-methyl-1H-imidazol-2-yl]-4-methyl-1-piperidyl]-7H-pyrrolo[2,3-d]pyrimidin-6-yl]-N-methyl-pyridine-2-carboxamide] came in with a half-maximal inhibitory concentration (IC50) of 0.0001 to 1 µM.
Take `CCOc1ccc(-c2[nH]c(C3(C)CCN(c4ncnc5[nH]c(-c6ccc(N7CCOCC7)nc6)cc45)CC3)nc2C)cc1` [P-3227, 4-[5-[4-[4-[5-(4-ethoxyphenyl)-4-methyl-1H-imidazol-2-yl]-4-methyl-1-piperidyl]-7H-pyrrolo[2,3-d]pyrimidin-6-yl]-2-pyridyl]morpholine]: the IC50 lay within 0.0001 to 1 µM.
Turning to `COc1ccc(-c2[nH]c(C3(C)CCN(c4ncnc5[nH]c(-c6ccc(NS(C)(=O)=O)cc6)cc45)CC3)nc2C)cc1C` [P-3228, N-[4-[4-[4-[5-(4-methoxy-3-methyl-phenyl)-4-methyl-1H-imidazol-2-yl]-4-methyl-1-piperidyl]-7H-pyrrolo[2,3-d]pyrimidin-6-yl]phenyl]methanesulfonamide], the IC50 was in the range of 0.0001 to 1 µM.
Molecule `CCOc1ccc(-c2[nH]c(C3(C)CCN(c4ncnc5[nH]c(-c6ccc(C(N)=O)cc6)cc45)CC3)nc2C)cc1` [P-3229, 4-[4-[4-[5-(4-ethoxyphenyl)-4-methyl-1H-imidazol-2-yl]-4-methyl-1-piperidyl]-7H-pyrrolo[2,3-d]pyrimidin-6-yl]benzamide] registered an IC50 of 0.0001 to 1 µM.
Then `CCOc1ccc(-c2[nH]c(C3(C)CCN(c4ncnc5[nH]c(-c6ccc(NS(C)(=O)=O)cc6)cc45)CC3)nc2C)cc1` [P-3230, N-[4-[4-[4-[5-(4-ethoxyphenyl)-4-methyl-1H-imidazol-2-yl]-4-methyl-1-piperidyl]-7H-pyrrolo[2,3-d]pyrimidin-6-yl]phenyl]methanesulfonamide], with 0.0001 to 1 µM; and `Cc1nc(C2(C)CCN(c3ncnc4[nH]c(-c5ccc(C(N)=O)cc5)cc34)CC2)[nH]c1-c1cccc(OC(F)F)c1` [P-3231, 4-[4-[4-[5-[3-(difluoromethoxy)phenyl]-4-methyl-1H-imidazol-2-yl]-4-methyl-1-piperidyl]-7H-pyrrolo[2,3-d]pyrimidin-6-yl]benzamide], with 0.0001 to 1 µM.
Molecule `Cc1nc(C2(C)CCN(c3ncnc4[nH]c(-c5ccc(NS(C)(=O)=O)cc5)cc34)CC2)[nH]c1-c1cccc(OC(F)F)c1` [P-3232, N-[4-[4-[4-[5-[3-(difluoromethoxy)phenyl]-4-methyl-1H-imidazol-2-yl]-4-methyl-1-piperidyl]-7H-pyrrolo[2,3-d]pyrimidin-6-yl]phenyl]methanesulfonamide] had an IC50 of 0.0001 to 1 µM.
The molecule `Cc1nc(C2(C)CCN(c3ncnc4[nH]c(-c5ccc(OCC(=O)O)cc5)cc34)CC2)[nH]c1-c1cccc(OC(F)F)c1` [P-3233, 2-[4-[4-[4-[5-[3-(difluoromethoxy)phenyl]-4-methyl-1H-imidazol-2-yl]-4-methyl-1-piperidyl]-7H-pyrrolo[2,3-d]pyrimidin-6-yl]phenoxy]acetic acid] came in with an IC50 of 0.0001 to 1 µM.
The molecule `COc1cccc(-c2[nH]c(C3(C)CCN(c4ncnc5[nH]c(-c6ccc(NS(C)(=O)=O)cc6)cc45)CC3)nc2C)c1` [P-3234, N-[4-[4-[4-[5-(3-methoxyphenyl)-4-methyl-1H-imidazol-2-yl]-4-methyl-1-piperidyl]-7H-pyrrolo[2,3-d]pyrimidin-6-yl]phenyl]methanesulfonamide] registered a concentration for half-maximal inhibition (IC50) of 0.0001 to 1 µM.
Then `CNC(=O)c1ccc(-c2cc3c(N4CCC(C)(c5nc(C)c(-c6ccc(C(F)F)cc6)[nH]5)CC4)ncnc3[nH]2)cn1` [P-3235, 5-[4-[4-[5-[4-(difluoromethyl)phenyl]-4-methyl-1H-imidazol-2-yl]-4-methyl-1-piperidyl]-7H-pyrrolo[2,3-d]pyrimidin-6-yl]-N-methyl-pyridine-2-carboxamide], with 0.0001 to 1 µM.
The molecule `CNC(=O)c1ccc(-c2cc3c(N4CCC(C)(c5nc(C)c(-c6cccc(OC(F)F)c6)[nH]5)CC4)ncnc3[nH]2)cn1` [P-3236, 5-[4-[4-[5-[3-(difluoromethoxy)phenyl]-4-methyl-1H-imidazol-2-yl]-4-methyl-1-piperidyl]-7H-pyrrolo[2,3-d]pyrimidin-6-yl]-N-methyl-pyridine-2-carb oxamide] gave an IC50 of 0.0001 to 1 µM.
`Cc1nc(C2(C)CCN(c3ncnc4[nH]c(-c5ccc(N6CCOCC6)nc5)cc34)CC2)[nH]c1-c1ccc(C(F)F)cc1` [P-3237, 4-[5-[4-[4-[5-[4-(difluoromethyl)phenyl]-4-methyl-1H-imidazol-2-yl]-4-methyl-1-piperidyl]-7H-pyrrolo[2,3-d]pyrimidin-6-yl]-2-pyridyl]morpholine]: the 50% inhibitory concentration (IC50) lay in the range of 0.0001 to 1 µM.
Molecule `Cc1nc(C2(C)CCN(c3ncnc4[nH]c(-c5ccc(N6CCOCC6)nc5)cc34)CC2)[nH]c1-c1cccc(OC(F)F)c1` [P-3238, 4-[5-[4-[4-[5-[3-(difluoromethoxy)phenyl]-4-methyl-1H-imidazol-2-yl]-4-methyl-1-piperidyl]-7H-pyrrolo[2,3-d]pyrimidin-6-yl]-2-pyridyl]morpholine] showed an IC50 of 0.0001 to 1 µM.
In the case of `Cc1nc(C2(C)CCN(c3ncnc4[nH]c(-c5ccc(C(N)=O)cc5)cc34)CC2)[nH]c1-c1ccc(C(F)F)cc1` [P-3239, 4-[4-[4-[5-[4-(difluoromethyl)phenyl]-4-methyl-1H-imidazol-2-yl]-4-methyl-1-piperidyl]-7H-pyrrolo[2,3-d]pyrimidin-6-yl]benzamide], the IC50 is 0.0001 to 1 µM.
The molecule `Cc1nc(C2(C)CCN(c3ncnc4[nH]c(-c5ccc(OCC(=O)O)cc5)cc34)CC2)[nH]c1-c1ccc(C(F)F)cc1` [P-3240, 2-[4-[4-[4-[5-[4-(difluoromethyl)phenyl]-4-methyl-1H-imidazol-2-yl]-4-methyl-1-piperidyl]-7H-pyrrolo[2,3-d]pyrimidin-6-yl]phenoxy]acetic acid] displayed an IC50 of 0.0001 to 1 µM.
The molecule `Cc1nc(C2(C)CCN(c3ncnc4[nH]c(-c5ccc(OCC(=O)O)cc5)cc34)CC2)[nH]c1-c1ccc(OC(F)F)cc1` [P-3241, 2-[4-[4-[4-[5-[4-(difluoromethoxy)phenyl]-4-methyl-1H-imidazol-2-yl]-4-methyl-1-piperidyl]-7H-pyrrolo[2,3-d]pyrimidin-6-yl]phenoxy]acetic acid] gave an IC50 of 0.0001 to 1 µM.
Molecule `Cc1nc(C2(C)CCN(c3ncnc4[nH]c(-c5cnn(C(F)F)c5)cc34)CC2)[nH]c1-c1ccc(OC(F)F)cc1` [P-3242, 4-[4-[5-[4-(difluoromethoxy)phenyl]-4-methyl-1H-imidazol-2-yl]-4-methyl-1-piperidyl]-6-[1-(difluoromethyl)pyrazol-4-yl]-7H-pyrrolo[2,3-d]pyrimidine] displayed an IC50 of 0.0001 to 1 µM.
`CCOc1ccc(-c2[nH]c(C3(C)CCN(c4ncnc5[nH]c(-c6ccc(C(N)=O)cc6)cc45)CC3)nc2C)cc1C` [P-3243, 4-[4-[4-[5-(4-ethoxy-3-methyl-phenyl)-4-methyl-1H-imidazol-2-yl]-4-methyl-1-piperidyl]-7H-pyrrolo[2,3-d]pyrimidin-6-yl]benzamide] came in with an IC50 of 0.0001 to 1 µM.
As for `CCOc1ccc(-c2[nH]c(C3(C)CCN(c4ncnc5[nH]c(-c6ccc(OCC(=O)O)cc6)cc45)CC3)nc2C)cc1C` [P-3244, 2-[4-[4-[4-[5-(4-ethoxy-3-methyl-phenyl)-4-methyl-1H-imidazol-2-yl]-4-methyl-1-piperidyl]-7H-pyrrolo[2,3-d]pyrimidin-6-yl]phenoxy]acetic acid], the IC50 was in the range of 0.0001 to 1 µM.
With `CCOc1ccc(-c2[nH]c(C3(C)CCN(c4ncnc5[nH]c(-c6cnn(C(F)F)c6)cc45)CC3)nc2C)cc1C` [P-3245, 6-[1-(difluoromethyl)pyrazol-4-yl]-4-[4-[5-(4-ethoxy-3-methyl-phenyl)-4-methyl-1H-imidazol-2-yl]-4-methyl-1-piperidyl]-7H-pyrrolo[2,3-d]pyrimidine] the figure was 0.0001 to 1 µM; with `CNC(=O)c1ccc(-c2cc3c(N4CCC(C)(c5nc(C)c(-c6ccc(OC(F)F)cc6)[nH]5)CC4)ncnc3[nH]2)cn1` [P-3246, 5-[4-[4-[5-[4-(difluoromethoxy)phenyl]-4-methyl-1H-imidazol-2-yl]-4-methyl-1-piperidyl]-7H-pyrrolo[2,3-d]pyrimidin-6-yl]-N-methyl-pyridine-2-carb oxamide], 0.0001 to 1 µM; with `CCOc1ccc(-c2[nH]c(C3(C)CCN(c4ncnc5[nH]c(-c6ccc(C(=O)NC)nc6)cc45)CC3)nc2C)cc1C` [P-3247, 5-[4-[4-[5-(4-ethoxy-3-methyl-phenyl)-4-methyl-1H-imidazol-2-yl]-4-methyl-1-piperidyl]-7H-pyrrolo[2,3-d]pyrimidin-6-yl]-N-methyl-pyridine-2-carb oxamide], 0.0001 to 1 µM.
`Cc1nc(C2(C)CCN(c3ncnc4[nH]c(-c5ccc(N6CCOCC6)nc5)cc34)CC2)[nH]c1-c1ccc(OC(F)F)cc1` [P-3248, 4-[5-[4-[4-[5-[4-(difluoromethoxy)phenyl]-4-methyl-1H-imidazol-2-yl]-4-methyl-1-piperidyl]-7H-pyrrolo[2,3-d]pyrimidin-6-yl]-2-pyridyl]morpholine]: the IC50 is 0.0001 to 1 µM.
The molecule `CCOc1ccc(-c2[nH]c(C3(C)CCN(c4ncnc5[nH]c(-c6ccc(N7CCOCC7)nc6)cc45)CC3)nc2C)cc1C` [P-3249, 4-[5-[4-[4-[5-(4-ethoxy-3-methyl-phenyl)-4-methyl-1H-imidazol-2-yl]-4-methyl-1-piperidyl]-7H-pyrrolo[2,3-d]pyrimidin-6-yl]-2-pyridyl]morpholine] yielded an IC50 of 0.0001 to 1 µM.
